Data reported in ChEMBL document CHEMBL4219205, “Utilizing a structure-based docking approach to develop potent G protein-coupled receptor kinase (GRK) 2 and 5 inhibitors” (Bioorg Med Chem Lett, 2018).

Assays:
[1] = target: T1, Beta-adrenergic receptor kinase 1 (Homo sapiens, UniProt P25098); assay: Inhibition of GRK2 (unknown origin) preincubated for 10 mins followed by peptide substrate and ATP addition measured after 1 hr by TR-FRET assay
T1 sequence (P25098 whole entry): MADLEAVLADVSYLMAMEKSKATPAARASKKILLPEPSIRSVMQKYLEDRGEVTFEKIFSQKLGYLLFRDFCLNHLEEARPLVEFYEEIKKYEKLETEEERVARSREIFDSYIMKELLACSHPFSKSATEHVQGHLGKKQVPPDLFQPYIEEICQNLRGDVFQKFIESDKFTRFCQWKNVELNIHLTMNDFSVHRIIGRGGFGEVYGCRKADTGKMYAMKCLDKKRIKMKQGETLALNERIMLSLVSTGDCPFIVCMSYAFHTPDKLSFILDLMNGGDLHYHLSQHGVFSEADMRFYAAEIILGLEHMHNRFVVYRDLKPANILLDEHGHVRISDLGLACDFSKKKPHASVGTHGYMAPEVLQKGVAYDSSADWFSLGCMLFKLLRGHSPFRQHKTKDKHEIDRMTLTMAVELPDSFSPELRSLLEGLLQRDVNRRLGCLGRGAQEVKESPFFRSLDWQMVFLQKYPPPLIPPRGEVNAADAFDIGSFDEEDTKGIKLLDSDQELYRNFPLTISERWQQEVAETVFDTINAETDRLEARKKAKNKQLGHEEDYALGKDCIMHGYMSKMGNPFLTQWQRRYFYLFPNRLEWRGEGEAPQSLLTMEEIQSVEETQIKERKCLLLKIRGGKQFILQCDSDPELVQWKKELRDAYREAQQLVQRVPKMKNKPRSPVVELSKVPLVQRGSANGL

[2] = target: T2, Rhodopsin kinase GRK1 (Homo sapiens, UniProt Q15835); assay: Inhibition of GRK1 (unknown origin) preincubated for 10 mins followed by peptide substrate and ATP addition measured after 1 hr by TR-FRET assay
T2 sequence (Q15835 whole entry): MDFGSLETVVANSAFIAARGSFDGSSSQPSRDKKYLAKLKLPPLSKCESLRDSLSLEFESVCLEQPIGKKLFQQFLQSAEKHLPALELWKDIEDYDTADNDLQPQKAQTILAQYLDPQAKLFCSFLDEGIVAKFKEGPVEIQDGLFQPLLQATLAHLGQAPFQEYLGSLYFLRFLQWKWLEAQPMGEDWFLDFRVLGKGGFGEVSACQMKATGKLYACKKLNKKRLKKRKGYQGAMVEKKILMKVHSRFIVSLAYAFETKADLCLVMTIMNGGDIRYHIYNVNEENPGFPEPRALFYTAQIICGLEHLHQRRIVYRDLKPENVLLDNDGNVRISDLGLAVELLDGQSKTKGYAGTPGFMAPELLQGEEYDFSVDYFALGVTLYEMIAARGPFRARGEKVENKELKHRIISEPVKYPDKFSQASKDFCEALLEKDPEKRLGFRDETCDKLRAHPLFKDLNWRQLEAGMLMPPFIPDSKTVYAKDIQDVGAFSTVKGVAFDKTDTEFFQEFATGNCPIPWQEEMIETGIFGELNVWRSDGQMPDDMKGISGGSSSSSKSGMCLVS

[3] = target: G protein-coupled receptor kinase 5 (Homo sapiens, UniProt P34947); assay: Inhibition of GRK5 (unknown origin) preincubated for 10 mins followed by peptide substrate and ATP addition measured after 1 hr by TR-FRET assay
[4] = species on record: Homo sapiens; assay: Selectivity ratio of IC50 for GRK5 (unknown origin) to IC50 for GRK2 (unknown origin) by phosphorylation assay

Chain of G protein-coupled receptor kinase 5 (P34947 whole entry): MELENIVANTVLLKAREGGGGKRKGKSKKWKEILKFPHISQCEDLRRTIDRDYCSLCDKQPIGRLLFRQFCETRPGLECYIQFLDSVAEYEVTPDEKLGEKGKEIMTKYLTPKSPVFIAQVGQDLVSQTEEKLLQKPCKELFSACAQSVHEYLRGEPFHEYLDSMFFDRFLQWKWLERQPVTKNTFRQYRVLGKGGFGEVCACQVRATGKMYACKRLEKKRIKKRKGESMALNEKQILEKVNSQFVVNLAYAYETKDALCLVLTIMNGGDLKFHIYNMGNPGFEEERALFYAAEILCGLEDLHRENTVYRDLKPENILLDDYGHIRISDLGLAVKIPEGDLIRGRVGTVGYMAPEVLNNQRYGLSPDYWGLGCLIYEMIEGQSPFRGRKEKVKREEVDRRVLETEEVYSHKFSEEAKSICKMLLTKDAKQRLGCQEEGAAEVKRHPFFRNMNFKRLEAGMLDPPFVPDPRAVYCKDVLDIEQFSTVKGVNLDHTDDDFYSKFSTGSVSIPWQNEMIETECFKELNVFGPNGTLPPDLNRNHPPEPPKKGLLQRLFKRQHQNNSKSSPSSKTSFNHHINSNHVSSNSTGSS

| SMILES | IC50 [1] [µM] | IC50 [2] [µM] | IC50 [3] [µM] | Ratio IC50 [4] |
| --- | --- | --- | --- | --- |
| CC1=C(C(=O)Nc2ccc3[nH]ncc3c2)C(c2ccc(F)c(CC(=O)NCc3ccc(C#N)nc3)c2)NC(=O)N1 (stereo not drawn) | 1.4 | > 100 |  |  |
| C#CCN(Cc1ccco1)C(=O)Cc1cc(C2NC(=O)NC(C)=C2C(=O)Nc2ccc3[nH]ncc3c2)ccc1F (stereo not drawn) | 0.92 | > 100 | 3.5 |  |
| COCc1noc(CNC(=O)c2cc(C3NC(=O)NC(C)=C3C(=O)Nc3ccc4[nH]ncc4c3)ccc2F)n1 (stereo not drawn) | 0.25 | 30 |  |  |
| CC1=C(C(=O)Nc2ccc3[nH]ncc3c2)C(c2ccc(F)c(C(=O)NC3CN4CCC3CC4)c2)NC(=O)N1 (stereo not drawn) | 0.5 | > 100 |  |  |
| COCCCC1CCCCN1C(=O)c1cc(C2NC(=O)NC(C)=C2C(=O)Nc2ccc3[nH]ncc3c2)ccc1F (stereo not drawn) | 29 | > 100 | > 100 |  |
| CC1=C(C(=O)Nc2ccc3[nH]ncc3c2)C(c2ccc(F)c(C(=O)N(C)CC3CCCCO3)c2)NC(=O)N1 (stereo not drawn) | 14 | > 100 | > 100 |  |
| CC1=C(C(=O)Nc2ccc3[nH]ncc3c2)C(c2ccc(F)c(C(=O)N(C)Cc3cc(C)[nH]n3)c2)NC(=O)N1 (stereo not drawn) | 1.1 | > 100 |  |  |
| CC1=C(C(=O)Nc2ccc3[nH]ncc3c2)C(c2ccc(F)c(CC(=O)N(C)Cc3nc(C)c[nH]3)c2)NC(=O)N1 (stereo not drawn) | 2 | > 100 |  |  |
| CC1=C(C(=O)Nc2ccc3[nH]ncc3c2)C(c2ccc(F)c(C(=O)NCCc3c(C)noc3C)c2)NC(=O)N1 (stereo not drawn) | 0.64 | > 100 |  |  |
| CCc1nc(CNC(=O)c2cc(C3NC(=O)NC(C)=C3C(=O)Nc3ccc4[nH]ncc4c3)ccc2F)no1 (stereo not drawn) |  | 3 |  |  |
| CC1=C(C(=O)Nc2ccc3[nH]ncc3c2)C(c2ccc(F)c(C(=O)NCc3cn4ccccc4n3)c2)NC(=O)N1 (stereo not drawn) | 0.54 | 17 | 1.9 | 3.5 |
| COC(=O)C1(NC(=O)c2cc(C3NC(=O)NC(C)=C3C(=O)Nc3ccc4[nH]ncc4c3)ccc2F)CCCCC1 (stereo not drawn) | 0.16 | 83 |  |  |
| CCCCCCC(C)NC(=O)c1cc(C2NC(=O)NC(C)=C2C(=O)Nc2ccc3[nH]ncc3c2)ccc1F (stereo not drawn) | 4.1 | > 100 |  |  |
| COc1ccccc1C(C)NC(=O)c1cc(C2NC(=O)NC(C)=C2C(=O)Nc2ccc3[nH]ncc3c2)ccc1F (stereo not drawn) | 0.4 | 16 |  |  |
| CC1=C(C(=O)Nc2ccc3[nH]ncc3c2)C(c2ccc(F)c(C(=O)NC(C)CCCC(C)C)c2)NC(=O)N1 (stereo not drawn) | 4.1 | > 100 | > 100 |  |
| CC1=C(C(=O)Nc2ccc3[nH]ncc3c2)C(c2ccc(F)c(C(=O)NC3CC4CCC3(C)C4(C)C)c2)NC(=O)N1 (stereo not drawn) | 4.6 | > 100 | > 100 |  |
| CC1=C(C(=O)Nc2ccc3[nH]ncc3c2)C(c2ccc(F)c(CC(=O)N3Cc4ccc(C)cc4C3)c2)NC(=O)N1 (stereo not drawn) | 0.2 | > 100 | 6.3 |  |
| CC1=C(C(=O)Nc2ccc3[nH]ncc3c2)C(c2ccc(F)c(CC(=O)N3CCC4CCC(C3)N4C)c2)NC(=O)N1 (stereo not drawn) | 2.1 | > 100 | 6.1 |  |
| CC1=C(C(=O)Nc2ccc3[nH]ncc3c2)C(c2ccc(F)c(C(=O)NCc3cnc4c(c3)CCC4)c2)NC(=O)N1 (stereo not drawn) | 0.34 | > 100 | 9.5 |  |
| CC1=C(C(=O)Nc2ccc3[nH]ncc3c2)C(c2ccc(F)c(C(=O)NCC(C)N3CCCCCC3)c2)NC(=O)N1 (stereo not drawn) | 1.2 | > 100 |  |  |
| CC1=C(C(=O)Nc2ccc3[nH]ncc3c2)C(c2ccc(F)c(CC(=O)N3CCCC(C(C)(C)C)CC3)c2)NC(=O)N1 (stereo not drawn) | 3.5 | > 100 | > 100 |  |
| CC1=C(C(=O)Nc2ccc3[nH]ncc3c2)C(c2ccc(F)c(CC(=O)N(CCO)Cc3ccco3)c2)NC(=O)N1 (stereo not drawn) | 0.46 | 26 | 1.7 |  |

The next lines start with results.

| IC50 [1] [µM] | IC50 [2] [µM] | IC50 [3] [µM] | SMILES | Ratio IC50 [4] |
| --- | --- | --- | --- | --- |
| 1.9 | > 100 |  | CCC(C)N(CO)C(=O)Cc1cc(C2NC(=O)NC(C)=C2C(=O)Nc2ccc3[nH]ncc3c2)ccc1F (stereo not drawn) |  |
| 3.8 | > 100 | > 100 | CC1=C(C(=O)Nc2ccc3[nH]ncc3c2)C(c2ccc(F)c(CCC(=O)NCC3(CO)CC3)c2)NC(=O)N1 (stereo not drawn) |  |
| 0.43 | > 100 | 2.4 | CC#CCN(CCCC)C(=O)Cc1cc(C2NC(=O)NC(C)=C2C(=O)Nc2ccc3[nH]ncc3c2)ccc1F (stereo not drawn) |  |
| 1.6 | > 100 |  | CCCOC1CCN(C(=O)Cc2cc(C3NC(=O)NC(C)=C3C(=O)Nc3ccc4[nH]ncc4c3)ccc2F)C1 (stereo not drawn) |  |
|  | > 100 |  | CC1=C(C(=O)Nc2ccc3[nH]ncc3c2)C(c2ccc(F)c(CC(=O)NCC3CCN(C4CC4)CC3)c2)NC(=O)N1 (stereo not drawn) |  |
|  | > 100 |  | CC1=C(C(=O)Nc2ccc3[nH]ncc3c2)C(c2ccc(F)c(CCC(=O)NCc3ncc(C)o3)c2)NC(=O)N1 (stereo not drawn) |  |
| 1.9 | > 100 | > 100 | CC1=C(C(=O)Nc2ccc3[nH]ncc3c2)C(c2ccc(F)c(CC(=O)NCc3cc(C)ccc3C)c2)NC(=O)N1 (stereo not drawn) |  |
| 1.8 | > 100 | > 100 | CC1=C(C(=O)Nc2ccc3[nH]ncc3c2)C(c2ccc(F)c(CCC(=O)NCC3(C)CCCCC3)c2)NC(=O)N1 (stereo not drawn) |  |
| 29 | > 100 | > 100 | CCC1(O)CCCN(C(=O)CCc2cc(C3NC(=O)NC(C)=C3C(=O)Nc3ccc4[nH]ncc4c3)ccc2F)C1 (stereo not drawn) |  |
| 44 | > 100 | > 100 | CCC(C)N(C)C(=O)c1cc(C2NC(=O)NC(C)=C2C(=O)Nc2ccc3[nH]ncc3c2)ccc1F (stereo not drawn) |  |
|  | > 100 |  | CC1=C(C(=O)Nc2ccc3[nH]ncc3c2)C(c2ccc(F)c(CC(=O)N3CCOC(CCO)C3)c2)NC(=O)N1 (stereo not drawn) |  |
| 12 | > 100 | > 100 | CC1=C(C(=O)Nc2ccc3[nH]ncc3c2)C(c2ccc(F)c(CCC(=O)N(CC(C)C)C(C)C)c2)NC(=O)N1 (stereo not drawn) |  |
| 2.4 | > 100 | 13 | C#CCN(CC(C)C)C(=O)Cc1cc(C2NC(=O)NC(C)=C2C(=O)Nc2ccc3[nH]ncc3c2)ccc1F (stereo not drawn) |  |
| 0.83 | > 100 | 9.3 | CCC(C)CN(CCO)C(=O)Cc1cc(C2NC(=O)NC(C)=C2C(=O)Nc2ccc3[nH]ncc3c2)ccc1F (stereo not drawn) |  |
| 1.5 | > 100 |  | CC1=C(C(=O)Nc2ccc3[nH]ncc3c2)C(c2ccc(F)c(CC(=O)N(CCO)CCC(C)C)c2)NC(=O)N1 (stereo not drawn) |  |
| 1.9 | > 100 |  | CC1=C(C(=O)Nc2ccc3[nH]ncc3c2)C(c2ccc(F)c(CC(=O)NC3CC(=O)N(C)C3)c2)NC(=O)N1 (stereo not drawn) |  |
| 4.7 | > 100 | > 100 | CC1=C(C(=O)Nc2ccc3[nH]ncc3c2)C(c2ccc(F)c(CCC(=O)NCCc3ccccc3)c2)NC(=O)N1 (stereo not drawn) |  |
| 0.75 | > 100 |  | CC1=C(C(=O)Nc2ccc3[nH]ncc3c2)C(c2ccc(F)c(CC(=O)N(CCCO)CCCO)c2)NC(=O)N1 (stereo not drawn) |  |
